Test results from the CheMixHub ionic liquid set.

Assay: xn = mol fraction of the nth substance listed

CCCC[n+]1ccn(C)c1.COS(=O)(=O)[O-] + CCCC[n+]1ccn(C)c1.F[B-](F)(F)F
101 kPa
Details	viscosity [mPa·s]
298.15 K, x2 = 0.4358	161.7
298.15 K, x2 = 0.5118	158.9
298.15 K, x2 = 0.6026	146.2
298.15 K, x2 = 0.9447	110.8
299.15 K, x2 = 0	202.9
299.15 K, x2 = 0.1209	181.8
301.15 K, x2 = 0.1209	162.8
301.15 K, x2 = 0.2142	158.7
301.15 K, x2 = 0.4358	136.4
301.15 K, x2 = 0.6934	117
301.15 K, x2 = 0.7813	109.5
302.15 K, x2 = 0	171.4
302.15 K, x2 = 0.3057	144.1
302.15 K, x2 = 0.5412	122.2
302.15 K, x2 = 0.6026	117.5
302.15 K, x2 = 0.648	113.8
303.15 K, x2 = 0.406	127.9
303.15 K, x2 = 0.5118	118.6
304.15 K, x2 = 0.3057	129.6
304.15 K, x2 = 0.5412	109.7
304.15 K, x2 = 0.6934	99.9
305.15 K, x2 = 0.1209	131.1
305.15 K, x2 = 0.2142	127.8
305.15 K, x2 = 0.6026	100.3
305.15 K, x2 = 0.9005	82.8
305.15 K, x2 = 0.9447	78.2
307.15 K, x2 = 0.4358	99.4
307.15 K, x2 = 0.6026	90.9
308.15 K, x2 = 0.1209	112.4
308.15 K, x2 = 0.406	98.7
308.15 K, x2 = 0.9447	68

NC=O + CCCC[n+]1ccn(C)c1.F[B-](F)(F)F
101 kPa
Details	viscosity [mPa·s]
293.15 K, x2 = 0	3.66
293.15 K, x2 = 0.2758	10.51
293.15 K, x2 = 0.3629	16.75
293.15 K, x2 = 0.5095	31.8
293.15 K, x2 = 0.569	39.6
298.15 K, x2 = 0.2758	9.47
298.15 K, x2 = 0.7588	56.7
298.15 K, x2 = 0.8107	64.8
303.15 K, x2 = 0.4499	17.48
303.15 K, x2 = 0.8107	50.9
303.15 K, x2 = 0.8626	57.3
303.15 K, x2 = 0.9313	66.4
308.15 K, x2 = 0.2758	7.5
308.15 K, x2 = 0.4499	14.74
308.15 K, x2 = 0.9313	51.2
313.15 K, x2 = 0.2054	4.61
313.15 K, x2 = 0.3629	8.75
313.15 K, x2 = 0.4499	11.81
318.15 K, x2 = 0.2758	5.08
318.15 K, x2 = 0.569	14.1
318.15 K, x2 = 0.6639	18.31
318.15 K, x2 = 0.8626	29.35

NCCO + CCCC[n+]1ccn(C)c1.F[P-](F)(F)(F)(F)F
101 kPa, x1 = 1
Details	electrical conductivity [S/m]	viscosity [mPa·s]
288.15 K	0.00163	31
293.15 K	0.00189	23.7
298.15 K	0.00227	–
303.15 K	0.00272	–
308.15 K	0.00321	–
313.15 K	0.00357	–
318.15 K	0.00622	8.1
323.15 K	0.00689	–

CCCC[n+]1ccn(C)c1.N#C[C-](C#N)C#N + CCCC[n+]1ccn(C)c1.O=S(=O)([N-]S(=O)(=O)C(F)(F)F)C(F)(F)F
viscosity [mPa·s], 100 kPa
Details	x2 = 0	x2 = 0.252	x2 = 0.501	x2 = 0.751
283.15 K	58.2	65.9	77.3	88.9
288.15 K	44.5	50.6	59.4	68.5
293.15 K	34.9	39.8	46.8	53.9
298.15 K	28	31.9	37.6	43.1
303.15 K	22.9	26.1	30.7	35.2
308.15 K	18.98	21.6	25.4	29.1
313.15 K	15.99	18.22	21.4	24.4
318.15 K	13.66	15.53	18.22	20.7
323.15 K	11.8	13.39	15.72	17.75
328.15 K	10.29	11.66	13.61	15.38
333.15 K	9.06	10.25	11.9	13.44
338.15 K	8.04	9.08	10.54	11.84
343.15 K	7.19	8.1	9.38	10.5
348.15 K	6.47	7.27	8.42	9.39
353.15 K	5.86	6.57	7.55	8.44
358.15 K	5.34	5.97	6.86	7.62
363.15 K	4.88	5.46	6.29	6.93

NCCO + CCCC[n+]1ccn(C)c1.O=[N+]([O-])[O-] + O
Details	viscosity [mPa·s]
313 K, 100 kPa, x2 = 0, x3 = 0.8878	1.963

CC[n+]1ccn(C)c1.COS(=O)(=O)[O-] + CCCO
viscosity [mPa·s], 101 kPa
Details	283.15 K	293.15 K	303.15 K	313.15 K	323.15 K
x1 = 0.0562	3.83	3	2.38	1.93	1.58
x1 = 0.1123	5.02	3.88	3.06	2.47	2.02
x1 = 0.2201	8.55	6.43	4.9	3.82	3.15
x1 = 0.3272	12.73	9.53	7.27	5.71	4.62
x1 = 0.4282	19.32	14.17	10.7	8.3	6.6
x1 = 0.5272	29.1	20.65	15.24	11.61	9.06
x1 = 0.6285	40.72	27.29	19.7	14.77	11.43
x1 = 0.7255	56.5	37.58	27.45	20.14	15.3
x1 = 0.8203	82.4	52.7	35.86	26.65	19.78
x1 = 0.9091	104.9	63.6	42.77	30.19	22.2
x1 = 0.954	127.2	77	50.3	35.02	25.63
x1 = 1	141	84.1	57.9	39.54	28.33
